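Compound exposure: 48 hours, 5 concentrations, 96-well plates. At the GI50, growth is halved.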 Activity calls are given as the source filed them. No stated cut-off is given here; in the data, active = GI50 up to about 1.1 µM and inactive = higher.
Assays:
Assay in all cases: NCI-60 cell line screen, 48 h
DLD-1 = system: DLD-1
DMS-273 = system: DMS-273
LXFL 529 = system: LXFL 529
SNB-78 = system: SNB-78
HOP-18 = system: HOP-18
KM-20L2 = system: KM-20L2
RXF 631 = system: RXF 631
XF498 = system: XF498
BT-549 = system: BT-549

Row | Compound | GI50 (DLD-1) | GI50 (DMS-273) | GI50 (LXFL 529) | GI50 (SNB-78) | GI50 (HOP-18) | GI50 (KM-20L2) | GI50 (RXF 631) | GI50 (XF498) | GI50 (BT-549)
1 | CC1CC2=Nc3ccccc3NC(c3ccccc3)C2=C(O)O1 (stereo not drawn) | > 100 µM (inactive) | > 100 µM (inactive) | > 100 µM (inactive) | > 100 µM (inactive) | > 100 µM (inactive) | > 100 µM (inactive) |  |  | 
2 | CCN(CC)CC(C)(C)C(=O)/C=C/c1ccc(C)cc1 | 11.5 µM (inactive) |  | 7.31 µM (inactive) | 10.7 µM (inactive) | 11.4 µM (inactive) | 4.17 µM (inactive) | 9.42 µM (inactive) | 7.96 µM (inactive) | 
3 | CCOC(=O)C1=C(Nc2ccccc2)OC/C1=N\NC(=O)Cc1ccccc1 | > 50 µM (inactive) |  | > 50 µM (inactive) | > 50 µM (inactive) | > 50 µM (inactive) | > 50 µM (inactive) | > 50 µM (inactive) | > 50 µM (inactive) | 
4 | CN(c1nc(=[N+](C)C)ss1)C1CCCCC1 | > 100 µM (inactive) | > 100 µM (inactive) | > 100 µM (inactive) | > 100 µM (inactive) | > 100 µM (inactive) | > 100 µM (inactive) | > 100 µM (inactive) | > 100 µM (inactive) | 
5 | CSc1nc(NC(=O)O)c(N(C(C)=O)C(=O)O)c(=O)n1C | > 100 µM (inactive) | > 100 µM (inactive) | > 100 µM (inactive) | > 100 µM (inactive) |  | > 100 µM (inactive) | > 100 µM (inactive) | > 100 µM (inactive) | 
6 | CN(CCO)c1nc(=O)c2c([nH]1)CCC2 | > 100 µM (inactive) | > 100 µM (inactive) | > 100 µM (inactive) | > 100 µM (inactive) | > 100 µM (inactive) | > 100 µM (inactive) |  | > 100 µM (inactive) | 
7 | Cc1cc(C(C)(C)C)cc(Cc2cc(C(C)(C)C)cc(Cc3cc(C(C)(C)C)cc(C)c3O)c2O)c1O | 6.05 µM (inactive) | 10.9 µM (inactive) | 8.04 µM (inactive) | 4.98 µM (inactive) | 15.4 µM (inactive) | 16.1 µM (inactive) |  | 1.65 µM (inactive) | 
8 | CCCCN(CCCC)C(=O)C(=O)C(C#N)c1ccc(C)cc1 (stereo not drawn) | > 100 µM (inactive) | > 100 µM (inactive) | > 100 µM (inactive) | > 100 µM (inactive) | > 100 µM (inactive) | > 100 µM (inactive) |  | > 100 µM (inactive) | 
9 | CN1C(=O)NC2(O)c3ccccc3C(=O)C12O (stereo not drawn) | > 100 µM (inactive) |  | > 100 µM (inactive) | > 100 µM (inactive) |  | > 100 µM (inactive) |  | > 100 µM (inactive) | 
10 | CC1(C)c2ccccc2C(C)(C)C(C(=O)Nc2ccccc2)C1C(=O)O (stereo not drawn) | > 100 µM (inactive) | > 100 µM (inactive) | > 100 µM (inactive) | > 100 µM (inactive) | > 100 µM (inactive) | > 100 µM (inactive) |  |  | 
11 | COC1=CC(=O)c2ccccc2C1(CCC=C(C)C)C1=NC(C)(C)CO1 (stereo not drawn) | > 100 µM (inactive) | 72.4 µM (inactive) | 50.7 µM (inactive) |  | 43.6 µM (inactive) | > 100 µM (inactive) |  |  | 
12 | CCC1=CCN(c2cc(C)ccn2)OC1c1ccc(OC)cc1 (stereo not drawn) | 30.2 µM (inactive) |  | 28.6 µM (inactive) |  |  | 30.3 µM (inactive) | 61.2 µM (inactive) |  | 
13 | COC(=O)/C(C#N)=C1\CCC(O)N1C (stereo not drawn) | > 100 µM (inactive) |  | > 100 µM (inactive) | > 100 µM (inactive) | > 100 µM (inactive) | > 100 µM (inactive) |  | > 100 µM (inactive) | 
14 | N=S(c1ccccc1[N+](=O)[O-])c1ccccc1[N+](=O)[O-] |  | 3.05 µM (inactive) | 2.22 µM (inactive) | 2.52 µM (inactive) | 5.3 µM (inactive) |  |  |  | 
15 | C=CCNC1=NC(=O)C(CC(=O)Nc2cccc(Cl)c2)S1 (stereo not drawn) | > 100 µM (inactive) | > 100 µM (inactive) | > 100 µM (inactive) |  | > 100 µM (inactive) | > 100 µM (inactive) | > 100 µM (inactive) | > 100 µM (inactive) | 
16 | COc1ccc2nc3cc(Cl)ccc3c(Sc3ccc([N+](=O)[O-])cc3C)c2c1 | > 100 µM (inactive) | > 100 µM (inactive) | > 100 µM (inactive) | > 100 µM (inactive) | > 100 µM (inactive) | > 100 µM (inactive) |  | > 100 µM (inactive) | 

Row | Compound | GI50 (DLD-1) | GI50 (DMS-273) | GI50 (LXFL 529) | GI50 (SNB-78) | GI50 (HOP-18) | GI50 (KM-20L2) | GI50 (RXF 631) | GI50 (XF498) | GI50 (BT-549)
17 | Cc1ccccc1NC(=O)C(=O)C1CN(c2ccccc2)N=C1N (stereo not drawn) | > 100 µM (inactive) |  | > 100 µM (inactive) | > 100 µM (inactive) |  | > 100 µM (inactive) | > 100 µM (inactive) | > 100 µM (inactive) | 
18 | COc1cc(/C=C/C(=O)Oc2ccc(NC(C)=O)cc2)ccc1C(=O)OCc1ccccc1 | > 100 µM (inactive) | 78 µM (inactive) | > 100 µM (inactive) | 32.6 µM (inactive) | > 100 µM (inactive) | > 100 µM (inactive) |  | 25.6 µM (inactive) | > 100 µM (inactive)
19 | CC1Cc2c(N)nc(N3CCOCC3)nc2NC1=O (stereo not drawn) | > 100 µM (inactive) | > 100 µM (inactive) |  |  | > 100 µM (inactive) | > 100 µM (inactive) |  | 0.463 µM (active) | 
20 | CCCCCCC/C=C1\CCC(CN(C)C)C1=O (stereo not drawn) | 7.1 µM (inactive) |  | 7.78 µM (inactive) | 16.4 µM (inactive) | 17.2 µM (inactive) | 19.1 µM (inactive) | 10.9 µM (inactive) | 20.5 µM (inactive) | 14.7 µM (inactive)
21 | COc1ccc(NC(=O)CC(=O)n2nc(C)c(/N=N/c3ccccc3C(=O)O)c2C)cc1 | > 100 µM (inactive) | > 100 µM (inactive) | > 100 µM (inactive) | 29.3 µM (inactive) |  | > 100 µM (inactive) |  | > 100 µM (inactive) | 
22 | CC(=O)O[C@H]1CC[C@@]2(C)C(=CC[C@@H]3C2CC[C@]2(C)C(=O)NC(=O)CC32)C1 (stereo partly drawn) | > 100 µM (inactive) | 62.7 µM (inactive) | > 100 µM (inactive) | > 100 µM (inactive) | > 100 µM (inactive) | > 100 µM (inactive) | > 100 µM (inactive) | > 100 µM (inactive) | 
23 | C=C/C=C/NC(=O)OCc1ccccc1 | > 100 µM (inactive) | > 100 µM (inactive) | > 100 µM (inactive) | > 100 µM (inactive) | > 100 µM (inactive) | > 100 µM (inactive) |  | > 100 µM (inactive) | 
24 | Cc1ccc2c(c1)C1(OC(=O)c3ccccc31)c1ccc(F)cc1O2 (stereo not drawn) | 61.8 µM (inactive) |  | 56.5 µM (inactive) |  | > 100 µM (inactive) | 44.1 µM (inactive) | 83.9 µM (inactive) | 82.8 µM (inactive) | 
25 | CC(=O)NC1=C(NCC(C)(C)C)C(=O)c2ccccc2C1=O | 99.5 µM (inactive) | > 100 µM (inactive) | > 100 µM (inactive) | 86.1 µM (inactive) |  | 57.8 µM (inactive) |  | 25.8 µM (inactive) | 
26 | CC(C)(C)C1=NO[C@H]2[C@@H](NC(=O)c3ccccc3)CC[C@@H]12 | > 100 µM (inactive) |  | > 100 µM (inactive) | > 100 µM (inactive) |  | > 100 µM (inactive) |  | > 100 µM (inactive) | 
27 | CC(=O)OC(C)(C)C[N+](=O)[O-] | > 100 µM (inactive) | > 100 µM (inactive) | > 100 µM (inactive) |  |  | > 100 µM (inactive) |  |  | 
28 | Cc1ccc(C2=C(c3ccccc3)C(Br)(c3ccc(C)cc3)C(c3ccccc3)=C2c2ccc(C)cc2)cc1 | > 100 µM (inactive) | > 100 µM (inactive) | > 100 µM (inactive) | > 100 µM (inactive) | 2.09 µM (inactive) | > 100 µM (inactive) | > 100 µM (inactive) | > 100 µM (inactive) | 
29 | COC(=O)C1=C2CCC(=O)[C@@]2(C)C(OC(C)=O)C=CC1 (stereo partly drawn) | 41.6 µM (inactive) | 36.6 µM (inactive) | 36.8 µM (inactive) | 57 µM (inactive) |  | > 100 µM (inactive) | 20.5 µM (inactive) | 36.3 µM (inactive) | 
30 | Cn1cnc([N+](=O)[O-])c1Sc1nc2cc([N+](=O)[O-])ccc2[nH]1 | 11.5 µM (inactive) | 1.73 µM (inactive) | 12.6 µM (inactive) | 24.1 µM (inactive) | 45.8 µM (inactive) | 24.8 µM (inactive) |  | 10.8 µM (inactive) | 
31 | CCCCc1ccc(-n2c3nc(=O)n(C)c(=O)c-3nc3ccccc32)cc1 |  | 10.3 µM (inactive) | 15.6 µM (inactive) | 16.3 µM (inactive) | 10.8 µM (inactive) | 4.4 µM (inactive) | 11.9 µM (inactive) | 18.2 µM (inactive) | 
